pEC50: −log10 of the molar value.
What follows are molecules tested on HCV 1b RLuc cells (dicistronic genotype 1b Con1 replicon) (assay: Renilla luciferase (RLuc)-based HCV replicon reporter assay). Details: HCV 1b RLuc replicon, 72 hours; read-out: Activity (antiviral potency [EC50]).
Assay type: cell-based, HCV genotype 1b
In short: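 EC50 values were calculated by non-linear regression of Renilla luciferase signal from lysed cells after 72 h of compound exposure. Cells harboured a genotype 1b Con1 dicistronic replicon encoding RLuc. Compounds were serially diluted in DMSO from 10 mM stocks into culture media.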
Molecule `COC(=O)N[C@H](C(=O)N1CCC[C@H]1c1ncc(-c2ccc(-c3ccc(-c4cnc([C@@H]5CSC(c6ccncc6)N5C(=O)OCc5ccccc5)[nH]4)cc3)cc2)[nH]1)C(C)C` (single isomer, unassigned) [drawing 1301] has a pEC50 of 10.12.

Same assay, conditions: Hepatitis C virus, 72 h, HCV 1b RLuc replicon, 72 hours; read-out: Activity (antiviral potency [EC50])
For `COC(=O)N[C@H](C(=O)N1CCC[C@H]1c1ncc(-c2ccc(C#Cc3ccc(-c4cnc([C@@H]5[C@H]6CC[C@H](C6)N5C(=O)[C@@H](NC(=O)OC)C(C)C)[nH]4)cc3)cc2)[nH]1)C(C)C`, the pEC50 was 10.14.
In the case of `CC[C@H](NC(=O)OC)C(=O)N1CC2(CC2)C[C@H]1c1ncc(-c2ccc3cc(-c4ccc(-c5cnc([C@@H]6[C@H]7CC[C@H](C7)N6C(=O)[C@@H](NC(=O)OC)C(C)C)[nH]5)cc4)ccc3c2)[nH]1`, the pEC50 was 10.74.
`CC[C@H](NC(=O)OC)C(=O)N1C[C@@H](C#N)C[C@H]1c1ncc(-c2ccc(-c3ccc4cc(-c5cnc([C@@H]6CC7(CC7)CN6C(=O)[C@@H](NC(=O)OC)C(C)C)[nH]5)ccc4c3)cc2)[nH]1` was tested, and the pEC50 was 10.75.
With `COC(=O)N[C@H](C(=O)N1CCC[C@H]1c1ncc(-c2ccc(-c3ccc(-c4cnc([C@@H]5CN(C(=O)OC)CN5C(=O)[C@@H](NC(=O)OC)C(C)C)[nH]4)cc3)cc2)[nH]1)C(C)C` the pEC50 was 10.52.
`COC(=O)N[C@@H](C)C(=O)N1CCC[C@H]1c1ncc(-c2ccc(-c3ccc4cc(-c5cnc([C@@H]6[C@H]7CC[C@H](C7)N6C(=O)[C@@H](NC(=O)OC)C(C)C)[nH]5)ccc4c3)cc2)[nH]1` showed a pEC50 of 10.47.
For `COC(=O)N[C@H](C(=O)N1CCC[C@H]1c1ncc(-c2ccc(C#Cc3ccc(-c4cnc([C@@H]5CN(C(=O)OC)CN5C(=O)[C@@H](NC(=O)OC)C(C)C)[nH]4)cc3)cc2)[nH]1)C(C)C`, the pEC50 was 10.73.
`COC(=O)N[C@@H](C)C(=O)N1CCC[C@H]1c1ncc(-c2ccc3c(c2)CCc2cc(-c4cnc([C@@H]5[C@H]6CC[C@H](C6)N5C(=O)[C@H](C)NC(=O)OC)[nH]4)ccc2-3)[nH]1` showed a pEC50 of 10.43.
Work on `COC(=O)N[C@H](C(=O)N1CC2(CC2)C[C@H]1c1ncc(-c2ccc3c(c2)C(F)(F)c2cc(-c4ccc5nc([C@@H]6[C@H]7CC[C@H](C7)N6C(=O)[C@@H](NC(=O)OC)C(C)C)[nH]c5c4)ccc2-3)[nH]1)C(C)C` yielded a pEC50 of 11.35.
For `COC(=O)N[C@H](C(=O)N1CCC[C@H]1c1ncc(-c2ccc3cc(-c4ccc5cc(-c6cnc([C@@H]7CCCN7C(=O)[C@@H](NC(=O)OC)C(C)C)[nH]6)ccc5c4)ccc3c2)[nH]1)C(C)C`, the pEC50 was 10.62.
Work on `COC(=O)N[C@H](C(=O)N1CCC[C@H]1c1nc2ccc(-c3ccc(-c4ccc5nc([C@@H]6CCCN6C(=O)[C@@H](NC(=O)OC)C(C)C)[nH]c5c4)cc3)cc2[nH]1)C(C)C` yielded a pEC50 of 11.00.
In the case of `CNC(=O)N1C[C@@H](c2ncc(-c3ccc(C#Cc4ccc(-c5cnc([C@@H]6CCCN6C(=O)[C@@H](NC(=O)OC)C(C)C)[nH]5)cc4)cc3)[nH]2)N(C(=O)[C@@H](NC(=O)OC)C(C)C)C1`, the pEC50 was 9.61.
Work on `COC(=O)N[C@H](C(=O)N1CCC[C@H]1c1ncc(-c2ccc3cc(-c4ccc(-c5cnc([C@@H]6CCCN6C(=O)[C@@H](NC(=O)OC)C6CCOCC6)[nH]5)cc4)ccc3c2)[nH]1)C(C)C` yielded a pEC50 of 10.88.
`COC(=O)N[C@H](C(=O)N1CCC[C@H]1c1ncc(-c2ccc(-c3ccc(-c4cnc([C@@H]5CN(C(C)=O)CN5C(=O)[C@@H](NC(=O)OC)C(C)C)[nH]4)cc3)cc2)[nH]1)C(C)C` showed a pEC50 of 10.07.
Work on `COC(=O)N[C@H](C(=O)N1CC2(CC2)C[C@H]1c1ncc(-c2ccc3cc(-c4ccc(-c5cnc([C@@H]6SCCN6C(=O)[C@@H](NC(=O)OC)C(C)C)[nH]5)cc4)ccc3c2)[nH]1)C(C)C` yielded a pEC50 of 10.72.
Work on `COC(=O)N[C@H](C(=O)N1[C@@H]2CC[C@@H](C2)[C@H]1c1ncc(-c2ccc(-c3ccc4cc(-c5cnc([C@@H]6CC7(CC7)CN6C(=O)[C@@H](NC(=O)OC)C(C)C)[nH]5)ccc4c3)cc2)[nH]1)c1ccccc1` yielded a pEC50 of 11.15.
In the case of `COC(=O)N[C@H](C(=O)N1C[C@@H](C#N)C[C@H]1c1ncc(-c2ccc(-c3ccc4cc(-c5cnc([C@@H]6CC7(CC7)CN6C(=O)[C@@H](NC(=O)OC)C(C)C)[nH]5)ccc4c3)cc2)[nH]1)C(C)C`, the pEC50 was 11.16.

From US8822430B2 (Gilead Sciences, Inc., priority 2009, dated 2014)
